# Data taken from ChEMBL document CHEMBL3992500, “Design, facile synthesis and biological evaluations of novel pyrano[3,2-a]phenazine hybrid molecules as antitumor agents” (Eur J Med Chem, 2017).
# The source made the active and inactive calls. The rule behind the calls is not given here.
# How the values were obtained:
# [1] = target: T1, DNA topoisomerase 1 (Homo sapiens) (UniProt P11387); assay: Inhibition of DNA topoisomerase-1 (unknown origin) assessed as reduction in enzyme-catalyzed relaxation of pBR322 DNA substrate at 2.5 to 5 uM after 30 mins by ethidium bromide staining based electrophoresis
# T1 sequence (whole entry): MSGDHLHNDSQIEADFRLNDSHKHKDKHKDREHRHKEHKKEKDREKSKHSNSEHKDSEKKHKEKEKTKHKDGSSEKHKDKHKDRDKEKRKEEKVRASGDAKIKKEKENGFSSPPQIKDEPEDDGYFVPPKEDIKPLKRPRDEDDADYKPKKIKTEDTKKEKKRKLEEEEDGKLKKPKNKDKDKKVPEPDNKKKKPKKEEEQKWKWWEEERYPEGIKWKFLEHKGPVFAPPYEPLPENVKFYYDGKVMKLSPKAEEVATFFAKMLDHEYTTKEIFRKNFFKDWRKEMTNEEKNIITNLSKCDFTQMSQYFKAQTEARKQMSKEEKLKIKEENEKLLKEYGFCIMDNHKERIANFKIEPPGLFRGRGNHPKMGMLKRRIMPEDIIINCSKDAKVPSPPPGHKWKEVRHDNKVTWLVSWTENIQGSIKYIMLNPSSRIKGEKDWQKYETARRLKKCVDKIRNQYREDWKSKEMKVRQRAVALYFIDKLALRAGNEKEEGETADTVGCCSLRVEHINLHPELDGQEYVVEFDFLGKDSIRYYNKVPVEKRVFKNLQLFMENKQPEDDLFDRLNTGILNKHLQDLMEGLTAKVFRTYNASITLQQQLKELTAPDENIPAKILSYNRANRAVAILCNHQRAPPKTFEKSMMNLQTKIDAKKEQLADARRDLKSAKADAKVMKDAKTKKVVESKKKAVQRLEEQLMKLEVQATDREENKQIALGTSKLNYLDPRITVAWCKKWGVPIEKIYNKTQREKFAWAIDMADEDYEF
# [2] = system: HepG2; assay: Induction of apoptosis in human HepG2 cells after 24 hrs by Annexin V-APC/7-AAD staining based flow cytometry; type: functional, cell-based
# [3] = system: HepG2; assay: Induction of apoptosis in human HepG2 cells assessed as necrotic cells at 8 uM after 24 hrs by Annexin V-APC/7-AAD staining based flow cytometry (reference value: 5.35%); type: functional
# [4] = system: HepG2; assay: Induction of apoptosis in human HepG2 cells assessed as late apoptotic cells at 8 uM after 24 hrs by Annexin V-APC/7-AAD staining based flow cytometry (reference value: 6.86%); type: functional
# [5] = system: HepG2; assay: Induction of apoptosis in human HepG2 cells assessed as increase in cleaved caspase-3 expression after 24 hrs by Western blot method; type: functional, cell-based
# [6] = system: HepG2; assay: Induction of apoptosis in human HepG2 cells assessed as necrotic cells at 4 uM after 24 hrs by Annexin V-APC/7-AAD staining based flow cytometry (reference value: 5.35%); type: functional
# [7] = system: HepG2; assay: Induction of apoptosis in human HepG2 cells assessed as early apoptotic cells at 8 uM after 24 hrs by Annexin V-APC/7-AAD staining based flow cytometry (reference value: 0.774%); type: functional
# [8] = system: MCF7; assay: Antiproliferative activity against human MCF7 cells after 48 hrs by MTT assay; type: functional, cell-based; conditions: MCF7, 48 h
# [9] = target: DNA topoisomerase 2-alpha (Homo sapiens) (UniProt P11388); assay: Inhibition of DNA topoisomerase-2alpha (unknown origin) assessed as reduction in enzyme-catalyzed relaxation of pBR322 DNA substrate at 20 uM after 30 mins by ethidium bromide staining based electrophoresis
# [10] = system: HepG2; assay: Induction of apoptosis in human HepG2 cells assessed as necrotic cells at 2 uM after 24 hrs by Annexin V-APC/7-AAD staining based flow cytometry (reference value: 5.35%); type: functional
# [11] = system: HepG2; assay: Cell cycle arrest in human HepG2 cells assessed as accumulation at G2/M phase after 24 hrs by propidium iodide staining based flow cytometry; type: functional
# [12] = system: HepG2; assay: Downregulation of cyclin B protein expression in human HepG2 cells after 24 hrs by Western blot method; type: functional, cell-based
# [13] = system: A549; assay: Antiproliferative activity against human A549 cells after 48 hrs by MTT assay; type: functional, cell-based; conditions: A549, 48 h
# [14] = system: Mus musculus; assay: Toxicity in ICR mouse implanted with mouse H22-H8D8 cells assessed as body weight at 10 mg/kg, iv (reference value: 29.89 to 33.78 g); type: organism-based; conditions: in vivo
# [15] = system: HepG2; assay: Induction of apoptosis in human HepG2 cells assessed as live cells at 8 uM after 24 hrs by Annexin V-APC/7-AAD staining based flow cytometry (reference value: 87%); type: functional
# [16] = target: T1, DNA topoisomerase 1 (Homo sapiens); assay: Inhibition of DNA topoisomerase-1 (unknown origin) assessed as reduction in enzyme-catalyzed relaxation of pBR322 DNA substrate at 20 uM after 30 mins by ethidium bromide staining based electrophoresis
# [17] = system: Mus musculus; assay: Toxicity in ICR mouse implanted with mouse H22-H8D8 cells assessed as body weight at 20 mg/kg, iv (reference value: 29.89 to 33.78 g); type: organism-based; conditions: in vivo
# [18] = system: HepG2; assay: Upregulation of p53 protein expression in human HepG2 cells after 24 hrs by Western blot method; type: functional, cell-based
# [19] = system: HepG2; assay: Downregulation of CDK1 protein expression in human HepG2 cells after 24 hrs by Western blot method; type: functional, cell-based
# [20] = system: Mus musculus; assay: Toxicity in ICR mouse implanted with mouse H22-H8D8 cells assessed as body weight at 5 mg/kg, iv (reference value: 29.89 to 33.78 g); type: organism-based; conditions: in vivo
# [21] = Antitumor activity against mouse H22-H8D8 cells implanted in ICR mouse assessed as tumor growth inhibition at 5 mg/kg, iv relative to control; type: functional; conditions: read-out: TGI
# [22] = system: HepG2; assay: Induction of apoptosis in human HepG2 cells assessed as early apoptotic cells at 2 uM after 24 hrs by Annexin V-APC/7-AAD staining based flow cytometry (reference value: 0.774%); type: functional
# [23] = system: HepG2; assay: Induction of apoptosis in human HepG2 cells assessed as early apoptotic cells at 4 uM after 24 hrs by Annexin V-APC/7-AAD staining based flow cytometry (reference value: 0.774%); type: functional
# [24] = system: HepG2; assay: Upregulation of p21 protein expression in human HepG2 cells after 24 hrs by Western blot method; type: functional, cell-based
# [25] = system: HepG2; assay: Induction of apoptosis in human HepG2 cells assessed as late apoptotic cells at 2 uM after 24 hrs by Annexin V-APC/7-AAD staining based flow cytometry (reference value: 6.86%); type: functional
# [26] = Antitumor activity against mouse H22-H8D8 cells implanted in ICR mouse assessed as tumor growth inhibition at 10 mg/kg, iv relative to control; type: functional; conditions: read-out: TGI
# [27] = system: HepG2; assay: Induction of apoptosis in human HepG2 cells assessed as live cells at 4 uM after 24 hrs by Annexin V-APC/7-AAD staining based flow cytometry (reference value: 87%); type: functional
# [28] = system: HepG2; assay: Induction of apoptosis in human HepG2 cells assessed as increase in cytochrome c release from mitochondria to cytosol up to 8 uM after 24 hrs by Western blot method; type: functional, cell-based
# [29] = system: HepG2; assay: Induction of apoptosis in human HepG2 cells assessed as live cells at 2 uM after 24 hrs by Annexin V-APC/7-AAD staining based flow cytometry (reference value: 87%); type: functional
# [30] = system: HepG2; assay: Induction of apoptosis in human HepG2 cells assessed as late apoptotic cells at 4 uM after 24 hrs by Annexin V-APC/7-AAD staining based flow cytometry (reference value: 6.86%); type: functional
# [31] = system: HepG2; assay: Induction of apoptosis in human HepG2 cells assessed as increase in Bax/Bcl2 ratio up to 8 uM after 24 hrs by Western blot method; type: functional, cell-based
# [32] = system: HepG2; assay: Antiproliferative activity against human HepG2 cells after 48 hrs by MTT assay; type: functional, cell-based; conditions: HepG2, 48 h
# [33] = target: DNA topoisomerase 2-alpha (Homo sapiens) (UniProt P11388); assay: Inhibition of DNA topoisomerase-2alpha (unknown origin) assessed as reduction in enzyme-catalyzed relaxation of pBR322 DNA substrate at 20 to 500 nM after 30 mins by ethidium bromide staining based electrophoresis
# [34] = system: HepG2; assay: Cell cycle arrest in human HepG2 cells assessed as accumulation at subG1 phase at 2 to 8 uM after 24 hrs by propidium iodide staining based flow cytometry; type: functional
# [35] = system: HCT-116; assay: Antiproliferative activity against human HCT116 cells after 48 hrs by MTT assay; type: functional, cell-based; conditions: HCT-116, 48 h
# [36] = Antitumor activity against mouse H22-H8D8 cells implanted in ICR mouse assessed as tumor growth inhibition at 20 mg/kg, iv relative to control; type: functional; conditions: read-out: TGI
# [37] = system: HepG2; assay: Induction of apoptosis in human HepG2 cells assessed as increase in cleaved caspase-9 expression after 24 hrs by Western blot method; type: functional, cell-based
# Chain of DNA topoisomerase 2-alpha (Homo sapiens) (P11388 whole entry): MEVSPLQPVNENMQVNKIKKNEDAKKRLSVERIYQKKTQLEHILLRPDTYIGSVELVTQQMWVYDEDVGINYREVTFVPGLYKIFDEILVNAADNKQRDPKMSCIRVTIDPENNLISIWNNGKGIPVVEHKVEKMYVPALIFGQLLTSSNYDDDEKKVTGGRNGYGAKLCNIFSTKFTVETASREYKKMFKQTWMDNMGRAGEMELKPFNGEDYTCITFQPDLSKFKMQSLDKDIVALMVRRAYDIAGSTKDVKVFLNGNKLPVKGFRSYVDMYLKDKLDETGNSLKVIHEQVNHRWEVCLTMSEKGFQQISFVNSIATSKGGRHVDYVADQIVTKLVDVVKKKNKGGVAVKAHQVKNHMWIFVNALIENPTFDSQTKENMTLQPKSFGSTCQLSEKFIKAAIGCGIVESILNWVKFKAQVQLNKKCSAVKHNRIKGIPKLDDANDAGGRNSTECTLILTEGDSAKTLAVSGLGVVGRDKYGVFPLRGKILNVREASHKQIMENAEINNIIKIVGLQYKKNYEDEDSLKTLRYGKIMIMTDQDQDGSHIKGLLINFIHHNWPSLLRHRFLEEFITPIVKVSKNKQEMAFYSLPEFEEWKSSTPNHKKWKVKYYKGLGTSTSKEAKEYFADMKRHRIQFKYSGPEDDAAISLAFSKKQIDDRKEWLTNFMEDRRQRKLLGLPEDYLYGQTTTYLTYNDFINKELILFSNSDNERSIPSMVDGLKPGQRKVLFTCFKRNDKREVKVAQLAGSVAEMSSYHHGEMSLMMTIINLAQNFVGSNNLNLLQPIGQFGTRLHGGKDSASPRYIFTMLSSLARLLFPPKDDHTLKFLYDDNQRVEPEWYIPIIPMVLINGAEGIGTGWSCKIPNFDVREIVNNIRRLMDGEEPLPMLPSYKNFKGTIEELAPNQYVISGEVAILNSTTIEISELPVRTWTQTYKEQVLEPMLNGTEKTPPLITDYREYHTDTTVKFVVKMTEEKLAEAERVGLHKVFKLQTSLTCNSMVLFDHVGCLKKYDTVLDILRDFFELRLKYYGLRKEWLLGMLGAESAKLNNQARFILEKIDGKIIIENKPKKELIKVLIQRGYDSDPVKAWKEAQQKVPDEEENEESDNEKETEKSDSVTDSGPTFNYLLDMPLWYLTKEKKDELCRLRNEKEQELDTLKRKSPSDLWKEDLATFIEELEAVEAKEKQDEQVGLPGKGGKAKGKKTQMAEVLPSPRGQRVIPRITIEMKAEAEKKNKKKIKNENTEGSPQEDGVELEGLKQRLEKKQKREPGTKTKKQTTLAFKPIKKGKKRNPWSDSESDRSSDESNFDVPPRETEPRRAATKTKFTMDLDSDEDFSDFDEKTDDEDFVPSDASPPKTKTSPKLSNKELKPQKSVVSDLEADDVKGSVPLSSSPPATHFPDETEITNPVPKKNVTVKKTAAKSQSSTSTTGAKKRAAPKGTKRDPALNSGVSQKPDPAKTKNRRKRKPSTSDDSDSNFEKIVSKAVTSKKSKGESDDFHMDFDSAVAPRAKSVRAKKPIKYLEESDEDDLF
structure (smiles),measurement,setting,value
N#CC1=C(N)Oc2c(N)cc3nc4ccccc4nc3c2C1c1ccc(Cl)c(Cl)c1 (configuration not stated),inhibition,[1],Active
same,Activity,[2],Dose-dependent effect
same,Activity,[3],20.7%
same,Activity,[4],53.5%
same,Activity,[5],Dose-dependent effect
same,Activity,[6],14.9%
same,Activity,[7],3.31%
same,IC50,[8],7.3 µM
same,inhibition,[9],Active
same,Activity,[10],5.65%
same,Activity,[11],Dose-dependent effect
same,Activity,[12],Dose-dependent effect
same,IC50,[13],6.8 µM
same,Activity,[14],35.33 g
same,Activity,[15],22.5%
same,inhibition,[16],Active
same,Activity,[17],35.22 g
same,Activity,[18],Dose-dependent effect
same,Activity,[19],Dose-dependent effect
same,Activity,[20],38 g
same,inhibition in vivo at 5 mg/kg,[21],7.78%
same,Activity,[22],3.1%
same,Activity,[23],8.97%
same,Activity,[24],Dose-dependent effect
same,Activity,[25],11.2%
same,inhibition in vivo at 10 mg/kg,[26],68.9%
same,Activity,[27],44.7%
same,Activity,[28],Active
same,Activity,[29],80%
same,Activity,[30],31.5%
same,Activity,[31],Active
same,IC50,[32],2.1 µM
same,inhibition,[33],Active
same,Activity,[34],Active
same,IC50,[35],8 µM
same,inhibition in vivo at 20 mg/kg,[36],77.8%
same,Activity,[37],Dose-dependent effect
